{"source": "patent EP0811056B1", "about": "“PEPTIDES FOR TISSUE AND CELL CULTURE MEDIA” (QUEST INTERNATIONAL B.V., priority 1995, dated 1996)", "origin": "cited, not measured here", "settings": "on a glutamine basis"}
{"substance": "Glycyl-L-glutamine", "values": [{"measurement": "amount of the dipeptide needed compared with free glutamine to obtain the same result", "result": "up to 6 times"}]}
